Measured values reported in patent US20250136607A1 (REGOR PHARMACEUTICALS, INC., priority 2021, published 2025).

Assays:
[1] = target: Protein arginine deiminase 4 (PAD4) (Homo sapiens, UniProt Q9UM07); experiment: PAD4 ammonia release assay; type: biochemical; conditions: PAD4 ammonia release assay, BAEE substrate, 60 min at RT; read-out: Average IC50 Abs
Method in brief: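 Ammonia release from BAEE substrate (2× mix 600 μM) was measured after 60 min at RT, following 15 min enzyme–compound preincubation (PAD4 2× 20 nM; pH 8.0 HEPES, 2 mM CaCl2, TCEP; 1.25% DMSO). Detection used OPA/DTT/EDTA for 120 min. % inhibition was taken versus reference-compound and DMSO controls; IC50 by four-parameter logistic fit.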

[2] = tested on: Citrullinated Histone H3 in dHL-60 cells (differentiated HL-60); experiment: dHL-60 Cit-H3 ELISA assay; type: cell-based, human; conditions: Homo sapiens, HL-60, 3 h, stimulation with 25 μM A23187 for 3 h, read-out: Average IC50 Abs
Method in brief: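 HL-60 cells differentiated 72 h with DMF, plated at 1×10^5/well, pretreated 30 min with compound (8-point 3-fold series, 0.2% DMSO), then stimulated 3 h at 37 °C with 25 μM A23187 plus S7 nuclease. Supernatant citrullinated H3 quantified by HRP ELISA at 450 nm; IC50 by four-parameter fit.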

Sequence of Protein arginine deiminase 4 (PAD4) (Q9UM07 whole entry): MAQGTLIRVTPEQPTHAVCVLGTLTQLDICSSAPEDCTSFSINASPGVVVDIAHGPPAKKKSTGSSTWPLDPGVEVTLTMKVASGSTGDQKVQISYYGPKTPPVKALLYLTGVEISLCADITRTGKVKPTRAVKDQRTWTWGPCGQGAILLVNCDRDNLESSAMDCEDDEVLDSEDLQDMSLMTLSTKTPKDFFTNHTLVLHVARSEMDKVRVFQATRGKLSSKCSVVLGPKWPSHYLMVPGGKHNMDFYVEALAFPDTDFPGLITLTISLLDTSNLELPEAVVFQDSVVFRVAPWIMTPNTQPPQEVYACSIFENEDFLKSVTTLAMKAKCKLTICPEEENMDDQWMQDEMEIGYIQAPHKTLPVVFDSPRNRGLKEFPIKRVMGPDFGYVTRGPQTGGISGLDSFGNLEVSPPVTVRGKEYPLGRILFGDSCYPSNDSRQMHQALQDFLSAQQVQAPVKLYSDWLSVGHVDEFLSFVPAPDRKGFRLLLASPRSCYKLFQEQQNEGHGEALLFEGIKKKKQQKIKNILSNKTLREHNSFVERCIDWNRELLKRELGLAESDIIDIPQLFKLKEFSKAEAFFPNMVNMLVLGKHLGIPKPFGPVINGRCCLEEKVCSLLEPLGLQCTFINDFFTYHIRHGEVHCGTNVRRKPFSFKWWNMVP

An IC50 [1] of 100 to 500 nM and an IC50 [2] of 100 to 500 nM were found for CCC1CNc2cc(F)cc3cc(-c4nc5cc(C(=O)N6C[C@H]7CC[C@@H]6[C@@H]7N)cc(F)c5n4C)n1c23 (stereo partly drawn) [Example 130, ((1R,4R,7R)-7-amino-2-azabicyclo[2.2.1]heptan-2-yl)(2-(3-ethyl-8-fluoro-2,3-dihydro-1H-pyrrolo[1,2,3-de]quinoxalin-5-yl)-7-fluoro-1-methyl-1H-benzo[d]imidazol-5-yl)methanone] in this work.
An IC50 [1] of 100 to 500 nM and an IC50 [2] of 500 to 5000 nM were found for CCC1CNc2cccc3cc(-c4nn5cc(C(=O)N6C[C@H]7CC[C@@H]6[C@@H]7N)cc(F)c5c4C)n1c23 (stereo partly drawn) [Example 140, [(1R,4R,7R)-7-amino-2-azabicyclo[2.2.1]heptan-2-yl]-[2-(11-ethyl-1,9-diazatricyclo[6.3.1.0^4,12]dodeca-2,4,6,8(12)-tetraen-2-yl)-4-fluoro-3-methyl-pyrazolo[1,5-a]pyridin-6-yl]methanone] in this work.
An IC50 [1] of at most 100 nM and an IC50 [2] of 100 to 500 nM were found for Cn1c(-c2cc3ccc4c(c3n2CC2CC2)NCC4)nc2cc(C(=O)N3C[C@H]4CC[C@@H]3[C@@H]4N)cc(F)c21 [Example 147, ((1R,4R,7R)-7-amino-2-azabicyclo[2.2.1]heptan-2-yl)(2-(1-(cyclopropylmethyl)-1,6,7,8-tetrahydropyrrolo[3,2-g]indol-2-yl)-7-fluoro-1-methyl-1H-benzo[d]imidazol-5-yl)methanone] in this work.
An IC50 [1] of at most 100 nM and an IC50 [2] of at most 100 nM were found for Cn1c(-c2cc3ccc4cc[nH]c4c3n2CC2CC2)nc2cc(C(=O)N3C[C@H]4CC[C@@H]3[C@@H]4N)cc(F)c21 [Example 148, ((1R,4R,7R)-7-amino-2-azabicyclo[2.2.1]heptan-2-yl)(2-(1-(cyclopropylmethyl)-1,8-dihydropyrrolo[3,2-g]indol-2-yl)-7-fluoro-1-methyl-1H-benzo[d]imidazol-5-yl)methanone] in this work.
An IC50 [1] of 100 to 500 nM and an IC50 [2] of 100 to 500 nM were found for CCN1CCc2c(ccc3cc(-c4nc5cc(C(=O)N6C[C@H]7CC[C@@H]6[C@@H]7N)cc(F)c5n4C)n(CC4CC4)c23)C1 [Example 153, ((1R,4R,7R)-7-amino-2-azabicyclo[2.2.1]heptan-2-yl)(2-(1-(cyclopropylmethyl)-7-ethyl-6,7,8,9-tetrahydro-1H-pyrrolo[2,3-f]isoquinolin-2-yl)-7-fluoro-1-methyl-1H-benzo[d]imidazol-5-yl)methanone] in this work.
An IC50 [1] of at most 100 nM and an IC50 [2] of at most 100 nM were found for CC(=O)N1CCc2c(ccc3cc(-c4nc5cc(C(=O)N6C[C@H]7CC[C@@H]6[C@@H]7N)cc(F)c5n4C)n(CC4CC4)c23)C1 [Example 156, 1-(2-(5-((1R,4R,7R)-7-amino-2-azabicyclo[2.2.1]heptane-2-carbonyl)-7-fluoro-1-methyl-1H-benzo[d]imidazol-2-yl)-1-(cyclopropylmethyl)-1,6,8,9-tetrahydro-7H-pyrrolo[2,3-f]isoquinolin-7-yl)ethan-1-one] in this work.
An IC50 [1] of at most 100 nM and an IC50 [2] of at most 100 nM were found for Cn1c(-c2cc3ccc4cn[nH]c4c3n2CC2CC2)nc2cc(C(=O)N3C[C@H]4CC[C@@H]3[C@@H]4N)cc(F)c21 [Example 157, ((1R,4R,7R)-7-amino-2-azabicyclo[2.2.1]heptan-2-yl)(2-(8-(cyclopropylmethyl)-1,8-dihydropyrrolo[3,2-g]indazol-7-yl)-7-fluoro-1-methyl-1H-benzo[d]imidazol-5-yl)methanone] in this work.
An IC50 [1] of at most 100 nM and an IC50 [2] of at most 100 nM were found for Cn1c(-c2cc3ccc4c(c3n2CC2CC2)NCCO4)nc2cc(C(=O)N3C[C@H]4CC[C@@H]3[C@@H]4N)cc(F)c21 [Example 158, ((1R,4R,7R)-7-amino-2-azabicyclo[2.2.1]heptan-2-yl)(2-(9-(cyclopropylmethyl)-1,2,3,9-tetrahydro-[1,4]oxazino[2,3-g]indol-8-yl)-7-fluoro-1-methyl-1H-benzo[d]imidazol-5-yl)methanone] in this work.
An IC50 [1] of at most 100 nM and an IC50 [2] of at most 100 nM were found for Cn1c(-c2cc3ccc4c(c3n2CC2CC2)NCCS4)nc2cc(C(=O)N3C[C@H]4CC[C@@H]3[C@@H]4N)cc(F)c21 [Example 161, ((1R,4R,7R)-7-amino-2-azabicyclo[2.2.1]heptan-2-yl)(2-(9-(cyclopropylmethyl)-1,2,3,9-tetrahydro-[1,4]thiazino[2,3-g]indol-8-yl)-7-fluoro-1-methyl-1H-benzo[d]imidazol-5-yl)methanone] in this work.
An IC50 [1] of 100 to 500 nM and an IC50 [2] of at most 100 nM were found for Cn1c(-c2cc3cccc4c3n2C(C2CCC2)CN4)nc2cc(C(=O)N3C[C@H]4CC[C@@H]3[C@@H]4N)cc(F)c21 (stereo partly drawn) [Example 164, ((1R,4R,7R)-7-amino-2-azabicyclo[2.2.1]heptan-2-yl)(2-(3-cyclobutyl-2,3-dihydro-1H-pyrrolo[1,2,3-de]quinoxalin-5-yl)-7-fluoro-1-methyl-1H-benzo[d]imidazol-5-yl)methanone] in this work.
